Laboratory results taken from PubChem BioAssay (NCI).
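Where inhibition never reached the appropriate level, the endpoint shown equals the highest concentration tested. Otherwise, values were interpolated linearly from a five-concentration, 48-hour dose response in 96-well plates. Definition used: TGI = concentration required for complete inhibition of growth.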

Experiments:
Experiment in all cases: DTP human tumour cell line panel, 48 h
UO-31 renal = system: UO-31 renal
CCRF-CEM leukemia = system: CCRF-CEM leukemia
IGROV1 ovarian = system: IGROV1 ovarian
U251 CNS = system: U251 CNS
DU-145 prostate = system: DU-145 prostate
HT29 colon = system: HT29 colon
UACC-257 melanoma = system: UACC-257 melanoma
SK-MEL-28 melanoma = system: SK-MEL-28 melanoma
SR leukemia = system: SR leukemia
PC-3 prostate = system: PC-3 prostate
MDA-N = system: MDA-N
UACC-62 melanoma = system: UACC-62 melanoma
HOP-62 NSCLC = system: HOP-62 NSCLC
A498 renal = system: A498 renal
SNB-75 CNS = system: SNB-75 CNS
CAKI-1 renal = system: CAKI-1 renal
HCT-116 colon = system: HCT-116 colon
HOP-92 NSCLC = system: HOP-92 NSCLC
HL-60(TB) leukemia = system: HL-60(TB) leukemia
OVCAR-3 ovarian = system: OVCAR-3 ovarian

Row | Structure (SMILES) | TGI (UO-31 renal) [µM] | TGI (CCRF-CEM leukemia) [µM] | TGI (IGROV1 ovarian) [µM] | TGI (U251 CNS) [µM] | TGI (DU-145 prostate) [µM] | TGI (HT29 colon) [µM] | TGI (UACC-257 melanoma) [µM] | TGI (SK-MEL-28 melanoma) [µM] | TGI (SR leukemia) [µM] | TGI (PC-3 prostate) [µM] | TGI (MDA-N) [µM] | TGI (UACC-62 melanoma) [µM] | TGI (HOP-62 NSCLC) [µM] | TGI (A498 renal) [µM] | TGI (SNB-75 CNS) [µM] | TGI (CAKI-1 renal) [µM] | TGI (HCT-116 colon) [µM] | TGI (HOP-92 NSCLC) [µM] | TGI (HL-60(TB) leukemia) [µM] | TGI (OVCAR-3 ovarian) [µM]
1 | C[C@@H]1CC[C@@H]2[C@@H](C1)O[C@@H]([C@@H](C)OCc1ccccc1)SC2(C)C | 30.6 | 34.5 | 63.3 | 32.6 | > 100 | 36.7 | 39.9 | 60.4 | 34.9 | 45.4 | 36.3 | 43.2 | 32.3 | 32 | 34 | 29 | 34.5 |  |  | 
2 | Cc1ccc(S(=O)(=O)N/N=C2/CCC3(O)CC2(C)CCC2[C@H]3CC2(C)C)cc1 (stereo partly specified) | 68.6 | 86.1 | 74.3 | 36 | > 100 | 99.5 | > 100 | 61.2 | > 100 | 65.1 | 92 | 60 | > 100 |  | 87.3 | > 100 | 75.7 | 87.6 | > 100 | > 100
3 | CCCc1nc2c(n1CC)C(=O)c1ccccc1C2=O |  | > 100 | > 100 | > 100 | > 100 | 53.3 | 45.6 | > 100 | > 100 | > 100 | 49.4 | > 100 | > 100 |  | > 100 |  | > 100 |  | > 100 | > 100
4 | CC(=O)N1C(Nc2nccs2)CCN1c1ccccc1 (stereo unspecified) |  | > 10 | > 10 |  | > 10 | > 10 | > 10 | > 10 | > 10 | > 10 | > 10 |  | > 10 |  | > 10 | > 10 | > 10 | > 10 | > 10 | > 10
5 | CSc1nc(=O)cnn1C | > 100 | > 100 | > 100 | > 100 | > 100 | > 100 | > 100 | > 100 | > 100 | > 100 | > 100 | > 100 | > 100 |  | > 100 | > 100 | > 100 |  |  | > 100
6 | CC1=CCC(C(C)(C)NC(=O)c2ccccc2)C/C1=N/O (stereo unspecified) | > 100 | > 100 | > 100 | > 100 | > 100 | > 100 | > 100 | > 100 |  | > 100 | > 100 | > 100 | > 100 |  | > 100 |  | > 100 | > 100 | > 100 | > 100
7 | Cc1nn(C(=O)c2ccncc2)c2c1C(c1ccccc1[N+](=O)[O-])SC(N)=N2 (stereo unspecified) |  | > 10 | > 10 |  | > 10 | > 10 | > 10 | > 10 | > 10 | > 10 | > 10 | > 10 | > 10 |  | > 10 | > 10 | > 10 | > 10 | > 10 | > 10
8 | Cc1ccc(C(=O)Oc2ccccc2)cc1N=NN(C)C | > 100 | > 100 | > 100 | > 100 | > 100 | > 100 | > 100 | > 100 | > 100 | > 100 | > 100 | > 100 | > 100 |  |  | > 100 | > 100 | > 100 | > 100 | > 100
9 | CCc1n[nH]c(=O)n1/N=C(\C)c1ccccc1 | > 100 | > 100 | > 100 | > 100 | > 100 | > 100 | > 100 | > 100 |  | > 100 | > 100 | > 100 | > 100 | > 100 |  | > 100 | > 100 |  | > 100 | > 100
10 | COC(=O)/C=C/[C@@H]1[C@H](C)N1S(=O)(=O)c1ccc(C)cc1 (stereo partly specified) |  | > 100 | > 100 | > 100 | > 100 | > 100 | > 100 | > 100 | > 100 | > 100 | > 100 | > 100 | > 100 | > 100 |  | > 100 | > 100 |  | > 100 | > 100
11 | Cn1nnc2c3c(N(CCO)CCO)ccnc3ccc21 | > 100 | > 100 | > 100 |  | > 100 | > 100 | > 100 |  | > 100 | > 100 | > 100 | > 100 | > 100 |  | > 100 | > 100 | > 100 |  |  | > 100
12 | O=C1Oc2ccccc2C(=O)/C1=C/N1C(=O)CNC1=S | > 100 | > 100 | > 100 | > 100 | > 100 | > 100 | > 100 | > 100 |  | > 100 | > 100 | > 100 | > 100 |  |  | > 100 | > 100 |  | > 100 | > 100
13 | O=C1OC([C@H](O)c2cccnc2)c2ccccc21 (stereo partly specified) | > 10 | > 10 | > 10 | > 10 | > 10 | > 10 | > 10 | > 10 | > 10 | > 10 | > 10 | > 10 | > 10 |  | > 10 | > 10 | > 10 | > 10 | > 10 | > 10
